Assay results reported in the supplement of paper PMC8741786.
In brackets after ≈: the same amount, converted by molar mass.

Columns and labels:
Test in all cases: minimum inhibitory concentration (ETEST)
Neisseria cinerea = settings: population: general population, antibiotic use in previous 6 months: No
Description: (§1)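 Oropharyngeal Neisseria isolates from MSM and employees in Belgium were identified to species by MALDI-TOF MS. MICs of azithromycin, ceftriaxone and ciprofloxacin were determined by ETEST on GC agar after 24 h at 36.5 °C and 5-7% CO2, in mg/L. Values beyond the strip range are reported as >256 (azithromycin) or <0.016 (ceftriaxone); isolates that did not grow are NA.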

Neisseria elongata = settings: population: general population, antibiotic use in previous 6 months: No
Description: as §1

Neisseria gonorrhoeae = settings: isolate id (sample isolate): 19113052_3; population: MSM; antibiotic use in previous 6 months: No
Description: as §1

Neisseria oralis = settings: population: general population, antibiotic use in previous 6 months: No
Description: as §1

[1] = system: Neisseria subflava/flavescens/perflava
Description: as §1

CO/N=C(\C(=O)N[C@@H]1C(=O)N2C(C(=O)O)=C(CSc3nc(=O)c(O)nn3C)CS[C@H]12)c1csc(N)n1 [ceftriaxone]
Settings	minimum inhibitory concentration [µg/mL]
Neisseria cinerea, isolate id (sample isolate): Co000769_3	< 0.016
Neisseria cinerea, isolate id (sample isolate): Co000776_4	< 0.016
Neisseria cinerea, isolate id (sample isolate): Co000776_5	< 0.016
Neisseria cinerea, isolate id (sample isolate): Co000782_1	< 0.016
Neisseria elongata, isolate id (sample isolate): Co000767_3	0.19 (≈ 0.343 µM)
Neisseria elongata, isolate id (sample isolate): Co000780_1	0.047 (≈ 0.0847 µM)
Neisseria elongata, isolate id (sample isolate): Co000783_4	0.023 (≈ 0.0415 µM)
Neisseria oralis, isolate id (sample isolate): Co000761_7	0.064 (≈ 0.115 µM)
Neisseria oralis, isolate id (sample isolate): Co000763_1	0.032 (≈ 0.0577 µM)
Neisseria oralis, isolate id (sample isolate): Co000766_2	0.023 (≈ 0.0415 µM)
Neisseria oralis, isolate id (sample isolate): Co000770_1	0.064 (≈ 0.115 µM)
Neisseria oralis, isolate id (sample isolate): Co000774_1	0.032 (≈ 0.0577 µM)
Neisseria oralis, isolate id (sample isolate): Co000776_1	0.047 (≈ 0.0847 µM)
Neisseria oralis, isolate id (sample isolate): Co000776_1.1	0.047 (≈ 0.0847 µM)
Neisseria oralis, isolate id (sample isolate): Co000779_2	0.094 (≈ 0.169 µM)
Neisseria oralis, isolate id (sample isolate): Co000790_5	0.064 (≈ 0.115 µM)

Settings	minimum inhibitory concentration [µg/mL]
Neisseria gonorrhoeae	< 0.016

[1]
Settings	minimum inhibitory concentration [µg/mL]
isolate id (sample isolate): 19041762_1, population: MSM, antibiotic use in previous 6 months: Yes	0.016 (≈ 0.0289 µM)
isolate id (sample isolate): 19041762_1.1, population: MSM, antibiotic use in previous 6 months: Yes	0.023 (≈ 0.0415 µM)
isolate id (sample isolate): 19041780_1, population: MSM, antibiotic use in previous 6 months: Yes	0.064 (≈ 0.115 µM)
isolate id (sample isolate): 19042150_1, population: MSM, antibiotic use in previous 6 months: Yes	0.5 (≈ 0.902 µM)
isolate id (sample isolate): 19042150_3, population: MSM, antibiotic use in previous 6 months: Yes	0.047 (≈ 0.0847 µM)
isolate id (sample isolate): 19042756_1, population: MSM, antibiotic use in previous 6 months: Yes	0.023 (≈ 0.0415 µM)
isolate id (sample isolate): 19042756_2, population: MSM, antibiotic use in previous 6 months: Yes	0.023 (≈ 0.0415 µM)
isolate id (sample isolate): 19043201_1.1, population: MSM, antibiotic use in previous 6 months: No	0.047 (≈ 0.0847 µM)
isolate id (sample isolate): 19043201_2.1, population: MSM, antibiotic use in previous 6 months: No	1 (≈ 1.8 µM)
isolate id (sample isolate): 19043201_3, population: MSM, antibiotic use in previous 6 months: No	0.064 (≈ 0.115 µM)
isolate id (sample isolate): 19043274_3, population: MSM, antibiotic use in previous 6 months: Yes	0.064 (≈ 0.115 µM)
isolate id (sample isolate): 19050474_1, population: MSM, antibiotic use in previous 6 months: No	0.047 (≈ 0.0847 µM)
isolate id (sample isolate): 19050514_1, population: MSM, antibiotic use in previous 6 months: Yes	0.047 (≈ 0.0847 µM)
isolate id (sample isolate): 19050949_1, population: MSM, antibiotic use in previous 6 months: No	0.032 (≈ 0.0577 µM)
isolate id (sample isolate): 19050949_2, population: MSM, antibiotic use in previous 6 months: No	0.023 (≈ 0.0415 µM)
isolate id (sample isolate): 19050949_2.1, population: MSM, antibiotic use in previous 6 months: No	0.016 (≈ 0.0289 µM)
isolate id (sample isolate): 19051904_2, population: MSM, antibiotic use in previous 6 months: Yes	0.064 (≈ 0.115 µM)
isolate id (sample isolate): 19051904_3, population: MSM, antibiotic use in previous 6 months: Yes	0.064 (≈ 0.115 µM)
isolate id (sample isolate): 19052394_1, population: MSM, antibiotic use in previous 6 months: Yes	0.032 (≈ 0.0577 µM)
isolate id (sample isolate): 19052394_1.1, population: MSM, antibiotic use in previous 6 months: Yes	0.023 (≈ 0.0415 µM)
isolate id (sample isolate): 19060089_1, population: MSM, antibiotic use in previous 6 months: Yes	0.047 (≈ 0.0847 µM)
isolate id (sample isolate): 19062994_1, population: MSM, antibiotic use in previous 6 months: Yes	0.047 (≈ 0.0847 µM)
isolate id (sample isolate): Co000761_2, population: general population, antibiotic use in previous 6 months: No	0.023 (≈ 0.0415 µM)
isolate id (sample isolate): Co000761_3, population: general population, antibiotic use in previous 6 months: No	0.032 (≈ 0.0577 µM)
isolate id (sample isolate): Co000761_5, population: general population, antibiotic use in previous 6 months: No	0.016 (≈ 0.0289 µM)
isolate id (sample isolate): Co000761_6, population: general population, antibiotic use in previous 6 months: No	0.016 (≈ 0.0289 µM)
isolate id (sample isolate): Co000762_3, population: general population, antibiotic use in previous 6 months: No	0.094 (≈ 0.169 µM)
isolate id (sample isolate): Co000762_4, population: general population, antibiotic use in previous 6 months: No	0.094 (≈ 0.169 µM)
isolate id (sample isolate): Co000763_2, population: general population, antibiotic use in previous 6 months: No	0.032 (≈ 0.0577 µM)
isolate id (sample isolate): Co000764_1, population: general population, antibiotic use in previous 6 months: No	0.032 (≈ 0.0577 µM)
isolate id (sample isolate): Co000764_2, population: general population, antibiotic use in previous 6 months: No	0.023 (≈ 0.0415 µM)
isolate id (sample isolate): Co000765_2, population: general population, antibiotic use in previous 6 months: No	0.047 (≈ 0.0847 µM)
isolate id (sample isolate): Co000765_3, population: general population, antibiotic use in previous 6 months: No	0.032 (≈ 0.0577 µM)
isolate id (sample isolate): Co000765_4, population: general population, antibiotic use in previous 6 months: No	0.023 (≈ 0.0415 µM)
isolate id (sample isolate): Co000766_1, population: general population, antibiotic use in previous 6 months: No	0.023 (≈ 0.0415 µM)
isolate id (sample isolate): Co000766_3, population: general population, antibiotic use in previous 6 months: No	0.032 (≈ 0.0577 µM)
isolate id (sample isolate): Co000767_1, population: general population, antibiotic use in previous 6 months: No	0.023 (≈ 0.0415 µM)
isolate id (sample isolate): Co000767_2, population: general population, antibiotic use in previous 6 months: No	0.023 (≈ 0.0415 µM)
isolate id (sample isolate): Co000767_4, population: general population, antibiotic use in previous 6 months: No	0.023 (≈ 0.0415 µM)
isolate id (sample isolate): Co000767_5, population: general population, antibiotic use in previous 6 months: No	0.064 (≈ 0.115 µM)
isolate id (sample isolate): Co000767_6, population: general population, antibiotic use in previous 6 months: No	0.023 (≈ 0.0415 µM)
